Results reported in patent publication US8022178B2, “Modified self-assembling peptides” (Massachusetts Institute of Technology, priority 2006, dated 2011).
“Also recorded” adds a separate entry of the source.

Tests used:
[1] = test system: MC3T3-E1 cells; assay: Three dimensional culturing of MC3T3-E1 in hydrogel (Calcein AM, confocal); format: cell-based, mouse; conditions: 14 days of culture; compared to RAD16-1; FIGS. 13A-13D
Description: Three dimensional culturing experiment. MC3T3-E1 cells were obtained and grown to be seeded using the same protocol as described in Example 1. Cells were centrifuged and re-suspended into sucrose solution (10%) at 4×10^6 cells/ml. FHR peptide was dissolved into water to provide a 1.0% w/t solution. 1% RAD16-I solution was obtained as RAD16-I (Puramatrix™, 3DM Inc./BD Bioscience). The pH of the FHR peptide solution was adjusted to pH 5.7 by NaOH solution (i.e., so that cells can be mixed near neutral pH). The cell suspension and the peptide solution (FHR/RAD16-I) were mixed in a ratio of 1:5. The mixed solution were placed in the inserts and the cell culture medium was added to the insert to form the hydrogel. The cells were maintained by the maintenance medium (as described herein).
Fluorescence observation of the cells. After 14 days of culture, the inserts were washed by PBS and then stained by Calcein AM solution (4 uM, Invitrogen). This solution stains the live cells by the green fluorescence when excited by 480 nm light.
The RAD16-1 and FHR hydrogels in the insert was observed by confocal microscope. […] The bright areas show the cells presence. […] The quantitative measurement of proliferation and differentiation effects by the FHR peptide hydrogel were also evaluated (FIGS. 14-16A/B). […]

[2] = test system: Liver progenitor cells; conditions: encapsulated liver progenitor cells (Semino 2003); cited from earlier work
[3] = test system: adipose derived stem cells (ADSC); assay: ADSC culture in functionalized peptide matrixes: cell migration; format: cell-based, human
Description: 3-dimensional adipose derived stem cells (ADSC) were cultured in the functionalized peptide matrixes (Table 24) and cell maintenance ability of functionalized self-assembling peptide matrixes was evaluated. ADSCs were suspended in 10% sucrose solution and mixed with peptide solution selected from Table 25. The cell suspended peptide solutions were transferred to the culture inserts (10 mm diameter, Millicell-CM, Millipore) and gels were immediately formed using cell culture medium. Cell numbers seeded in the well were 4×10^4 cells/well.
The peptide solutions shown in Table 25 were loaded in the culture inserts (10 mm diameter, Millicell-CM, Millipore) and gels were formed using cell culture medium (DMEM-F12+10% FBS, Gibco). ADSC were plated at 4×10^4 cells on the inserts and cultured up to 7 Days.
Although the cells were seeded on the surface of the matrix, the cells were migrated well into the matrix.

[4] = test system: HUVEC (human umbilical vein endothelial cells); assay: HUVEC culture on bFGF loaded peptide matrix; format: cell-based; conditions: Day 3; bFGF loaded matrix compared to negative and positive control; FIG. 21; listed as RAD-2P
Description: The effect of protein retention and delivery using the self-assembling peptide were studied (Table 11). bFGF was used as a model protein. The retention of bFGF in different peptide matrix in different charge condition was measured by ELISA after washing by PBS. After washing out unbound bFGF, the effect of protein retention to self-assembling peptide matrix were evaluated the using cell culturing of HUVEC (human umbilical vein endothelial cells).
The peptide solutions provided in Table 12 were loaded in the culture inserts (10 mm diameter, Millicell-CM, Millipore) and gels were formed using PBS. After gelation, bFGF solution in PBS was added inside and outside and plated for overnight. bFGF was loaded at 175 ng/insert. After loading bFGF, the PBS inside and outside the inserts were exchanged three times (2 hours, 9 hours and 12 hours) to remove unbound bFGF (Washing). […]
Cell culturing using cell culture medium (EGM-2-MV) was used without attached growth factor on peptide matrix as negative control. […] The bFGF concentration in washing buffer (PBS) and cell culture medium (EGM-2-MV) was measured using ELISA. […] Growth factor retention rate was calculated by accumulating the amount of measured bFGF. […]

Ac(RADA)4GGFHRRIKA-CONH2 (Ac-RADARADARADARADAGGFHRRIKA-NH2) [FHR = 1% solution; FHR-2P = 2% solution]
3-Dimensional cell proliferation [1]: superior

Ac(RADA)4-CONH2
hepatocyte marker expression [2]: expressed markers indicative of hepatocyte phenotype
migration depth of cells ([3]; 7 days of culturing, FIG. 34): migrated less deeper than PRGmx
portion of the cell migrated into the hydrogels ([3]; 7 days, compared to PRGmx): larger
cell attachment and cell spread [4]: superior; also recorded: dominant effect
